Results as given in ChEMBL document CHEMBL2440076, “New triarylpyrazoles as broad-spectrum anticancer agents: design, synthesis, and biological evaluation” (Eur J Med Chem, 2013).

How the values were obtained:
Type in all cases: functional
RPMI-8226 = test: Growth inhibition of human RPMI8226 cells assessed as cell growth at 5X10'-9 M after 48 hrs by sulforhodamine B assay; conditions: RPMI-8226, 48 h, read-out: Activity
SK-OV-3 [1] = test: Growth inhibition of human SKOV3 cells assessed as cell growth at 5X10'-8 M after 48 hrs by sulforhodamine B assay; conditions: SK-OV-3, 48 h, read-out: Activity
[2] = Growth inhibition of human HCC2998 cells assessed as cell growth at 5X10'-8 M after 48 hrs by sulforhodamine B assay; conditions: HCC 2998, 48 h, read-out: Activity
SF-268 [3] = test: Growth inhibition of human SF268 cells assessed as cell growth at 5X10'-7 M after 48 hrs by sulforhodamine B assay; conditions: SF-268, 48 h, read-out: Activity
HL-60(TB) = test: Growth inhibition of human HL-60(TB) cells assessed as cell growth at 5X10'-7 M after 48 hrs by sulforhodamine B assay; conditions: HL-60, 48 h, read-out: Activity
RXF 393 = test: Growth inhibition of human RXF393 cells assessed as cell growth at 5X10'-9 M after 48 hrs by sulforhodamine B assay; conditions: RXF 393, 48 h, read-out: Activity
NCI-H522 = test: Growth inhibition of human NCI-H522 cells assessed as cell growth at 5X10'-8 M after 48 hrs by sulforhodamine B assay; conditions: NCI-H522, 48 h, read-out: Activity
SF-268 [4] = test: Growth inhibition of human SF268 cells assessed as cell growth at 5X10'-8 M after 48 hrs by sulforhodamine B assay; conditions: SF-268, 48 h, read-out: Activity
ACHN = test: Growth inhibition of human ACHN cells assessed as cell growth at 5X10'-5 M after 48 hrs by sulforhodamine B assay; conditions: read-out: Activity
BT-549 = test: Growth inhibition of human BT549 cells assessed as cell growth at 5X10'-7 M after 48 hrs by sulforhodamine B assay; conditions: BT-549, 48 h, read-out: Activity
COLO 205 = test: Growth inhibition of human COLO205 cells assessed as cell growth at 5X10'-5 M after 48 hrs by sulforhodamine B assay; conditions: COLO 205, 48 h, read-out: Activity
LOX IMVI = test: Growth inhibition of human LOXIMVI cells assessed as cell growth at 5X10'-8 M after 48 hrs by sulforhodamine B assay; conditions: read-out: Activity
IGROV-1 [5] = test: Growth inhibition of human IGROV1 cells assessed as cell growth at 5X10'-6 M after 48 hrs by sulforhodamine B assay; conditions: IGROV-1, 48 h, read-out: Activity
MOLT-4 [6] = test: Growth inhibition of human MOLT4 cells assessed as cell growth at 5X10'-8 M after 48 hrs by sulforhodamine B assay; conditions: MOLT-4, 48 h, read-out: Activity
M14 = test: Growth inhibition of human M14 cells assessed as cell growth at 5X10'-9 M after 48 hrs by sulforhodamine B assay; conditions: M14, 48 h, read-out: Activity
IGROV-1 [7] = test: Growth inhibition of human IGROV1 cells assessed as cell growth at 5X10'-7 M after 48 hrs by sulforhodamine B assay; conditions: IGROV-1, 48 h, read-out: Activity
OVCAR-4 [8] = test: Growth inhibition of human OVCAR4 cells assessed as cell growth at 5X10'-8 M after 48 hrs by sulforhodamine B assay; conditions: OVCAR-4, 48 h, read-out: Activity
NCI-H460 = test: Growth inhibition of human NCI-H460 cells assessed as cell growth at 5X10'-6 M after 48 hrs by sulforhodamine B assay; conditions: NCI-H460, 48 h, read-out: Activity
MDA-MB-468 = test: Growth inhibition of human MDA-MB-468 cells assessed as cell growth at 5X10'-6 M after 48 hrs by sulforhodamine B assay; conditions: MDA-MB-468, 48 h, read-out: Activity
K562 = test: Growth inhibition of human K562 cells assessed as cell growth at 5X10'-6 M after 48 hrs by sulforhodamine B assay; conditions: K562, 48 h, read-out: Activity
SR [9] = test: Growth inhibition of human SR cells assessed as cell growth at 5X10'-9 M after 48 hrs by sulforhodamine B assay; conditions: read-out: Activity
MOLT-4 [10] = test: Growth inhibition of human MOLT4 cells assessed as cell growth at 5X10'-7 M after 48 hrs by sulforhodamine B assay; conditions: MOLT-4, 48 h, read-out: Activity
UO-31 = test: Growth inhibition of human UO31 cells assessed as cell growth at 5X10'-8 M after 48 hrs by sulforhodamine B assay; conditions: UO-31, 48 h, read-out: Activity
SR [11] = test: Growth inhibition of human SR cells assessed as cell growth at 5X10'-6 M after 48 hrs by sulforhodamine B assay; conditions: read-out: Activity
OVCAR-3 = test: Growth inhibition of human OVCAR3 cells assessed as cell growth at 5X10'-6 M after 48 hrs by sulforhodamine B assay; conditions: OVCAR-3, 48 h, read-out: Activity
U-251 = test: Growth inhibition of human U251 cells assessed as cell growth at 5X10'-8 M after 48 hrs by sulforhodamine B assay; conditions: U-251, 48 h, read-out: Activity
SK-MEL-28 = test: Growth inhibition of human SK-MEL-28 cells assessed as cell growth at 5X10'-6 M after 48 hrs by sulforhodamine B assay; conditions: SK-MEL-28, 48 h, read-out: Activity
NCI-H322M = test: Growth inhibition of human NCI-H322M cells assessed as cell growth at 5X10'-7 M after 48 hrs by sulforhodamine B assay; conditions: read-out: Activity
DU-145 = test: Growth inhibition of human DU145 cells assessed as cell growth at 5X10'-8 M after 48 hrs by sulforhodamine B assay; conditions: DU-145, 48 h, read-out: Activity
UACC-257 = test: Growth inhibition of human UACC257 cells assessed as cell growth at 5X10'-7 M after 48 hrs by sulforhodamine B assay; conditions: UACC-257, 48 h, read-out: Activity
OVCAR-4 [12] = test: Growth inhibition of human OVCAR4 cells assessed as cell growth at 5X10'-9 M after 48 hrs by sulforhodamine B assay; conditions: OVCAR-4, 48 h, read-out: Activity
KM12 = test: Growth inhibition of human KM12 cells assessed as cell growth at 5X10'-6 M after 48 hrs by sulforhodamine B assay; conditions: KM12, 48 h, read-out: Activity
SK-OV-3 [13] = test: Growth inhibition of human SKOV3 cells assessed as cell growth at 5X10'-7 M after 48 hrs by sulforhodamine B assay; conditions: SK-OV-3, 48 h, read-out: Activity
MOLT-4 [14] = test: Growth inhibition of human MOLT4 cells assessed as cell growth at 5X10'-5 M after 48 hrs by sulforhodamine B assay; conditions: MOLT-4, 48 h, read-out: Activity
CCRF-CEM = test: Growth inhibition of human CCRF-CEM cells assessed as cell growth at 5X10'-5 M after 48 hrs by sulforhodamine B assay; conditions: read-out: Activity
MDA-MB-231 = test: Growth inhibition of human MDA-MB-231 cells assessed as cell growth at 5X10'-8 M after 48 hrs by sulforhodamine B assay; conditions: MDA-MB-231, 48 h, read-out: Activity
SN12C = test: Growth inhibition of human SN12C cells assessed as cell growth at 5X10'-5 M after 48 hrs by sulforhodamine B assay; conditions: read-out: Activity

Row | Structure (SMILES) | growth at 0.005 µM (RPMI-8226) [%] | growth at 0.05 µM (SK-OV-3 [1]) [%] | growth at 0.05 µM [2] [%] | growth at 0.5 µM (SF-268 [3]) [%] | growth at 0.5 µM (HL-60(TB)) [%] | growth at 0.005 µM (RXF 393) [%] | growth at 0.05 µM (NCI-H522) [%] | growth at 0.05 µM (SF-268 [4]) [%] | growth at 50 µM (ACHN) [%] | growth at 0.5 µM (BT-549) [%] | growth at 50 µM (COLO 205) [%] | growth at 0.05 µM (LOX IMVI) [%] | growth at 5 µM (IGROV-1 [5]) [%] | growth at 0.05 µM (MOLT-4 [6]) [%] | growth at 0.005 µM (M14) [%] | growth at 0.5 µM (IGROV-1 [7]) [%] | growth at 0.05 µM (OVCAR-4 [8]) [%] | growth at 5 µM (NCI-H460) [%] | growth at 5 µM (MDA-MB-468) [%] | growth at 5 µM (K562) [%] | also measured
1 | COc1cc(-c2nn(-c3cccc(NC(=O)c4cccc(C(F)(F)F)c4)c3)cc2-c2ccncc2)ccc1Cl | 98 | 103 | 100 | 88 | 103 | 99 | 92 | 93 | 14 | 102 | -72 | 91 | 22 | 98 | 95 | 86 | 98 | 4 | -4 | 9 | growth at 0.005 µM (SR [9]): 96%; growth at 0.5 µM (MOLT-4 [10]): 91%; growth at 0.05 µM (UO-31): 75%; growth at 5 µM (SR [11]): -3%; growth at 5 µM (OVCAR-3): -28%; growth at 0.05 µM (U-251): 94%; growth at 5 µM (SK-MEL-28): 34%; growth at 0.5 µM (NCI-H322M): 87%; growth at 0.05 µM (DU-145): 95%; growth at 0.5 µM (UACC-257): 87%; growth at 0.005 µM (OVCAR-4 [12]): 94%; growth at 5 µM (KM12): 14%; growth at 0.5 µM (SK-OV-3 [13]): 101%; growth at 50 µM (MOLT-4 [14]): 16%; growth at 50 µM (CCRF-CEM): 4%; growth at 0.05 µM (MDA-MB-231): 97%; growth at 50 µM (SN12C): 24%
2 | O=C(Nc1cccc(-n2cc(-c3ccncc3)c(-c3ccc(Cl)c(O)c3)n2)c1)Nc1cc(C(F)(F)F)cc(C(F)(F)F)c1 | 97 | 102 | 105 | 73 | 93 | 95 | 102 | 103 | -95 | 109 | -91 | 100 | -12 | 109 | 104 | 71 | 95 | -51 | -14 | -5 | growth at 0.005 µM (SR [9]): 102%; growth at 0.5 µM (MOLT-4 [10]): 81%; growth at 0.05 µM (UO-31): 89%; growth at 5 µM (SR [11]): -11%; growth at 5 µM (OVCAR-3): -70%; growth at 0.05 µM (U-251): 93%; growth at 5 µM (SK-MEL-28): -85%; growth at 0.5 µM (NCI-H322M): 84%; growth at 0.05 µM (DU-145): 109%; growth at 0.5 µM (UACC-257): 84%; growth at 0.005 µM (OVCAR-4 [12]): 95%; growth at 5 µM (KM12): -60%; growth at 0.5 µM (SK-OV-3 [13]): 98%; growth at 50 µM (MOLT-4 [14]): -29%; growth at 50 µM (CCRF-CEM): -18%; growth at 0.05 µM (MDA-MB-231): 92%; growth at 50 µM (SN12C): -48%
3 | O=C(Nc1cccc(-n2cc(-c3ccncc3)c(-c3ccc(Cl)c(O)c3)n2)c1)c1ccc(N2CCOCC2)c(C(F)(F)F)c1 | 98 | 98 | 99 | 104 | 130 | 105 | 94 | 93 | 8 | 111 | 65 | 96 | 68 | 94 | 96 | 112 | 100 | 9 | 63 | 11 | growth at 0.005 µM (SR [9]): 94%; growth at 0.5 µM (MOLT-4 [10]): 87%; growth at 0.05 µM (UO-31): 88%; growth at 5 µM (SR [11]): 18%; growth at 5 µM (OVCAR-3): 49%; growth at 0.05 µM (U-251): 101%; growth at 5 µM (SK-MEL-28): 5%; growth at 0.5 µM (NCI-H322M): 114%; growth at 0.05 µM (DU-145): 97%; growth at 0.5 µM (UACC-257): 90%; growth at 0.005 µM (OVCAR-4 [12]): 93%; growth at 5 µM (KM12): 25%; growth at 0.5 µM (SK-OV-3 [13]): 106%; growth at 50 µM (MOLT-4 [14]): -5%; growth at 50 µM (CCRF-CEM): 14%; growth at 0.05 µM (MDA-MB-231): 93%; growth at 50 µM (SN12C): 39%
